# Assay results taken from patent US12590953B2, “Methods for screening cereblon modifying compounds” (CELGENE CORPORATION, priority 2018, dated 2026).
# Columns and labels:
# SALL4 = assay: Cellular degradation of SALL4 variants in lenti-X-293 HEK cells expressing GST-CRBN; assay type: cell-based, human; details: 40 μM thalidomide, 16 hours
# Procedure: Cells were treated with […] (+) or DMSO vehicle control (−) as indicated for 16 hours (n=2, biological replicates).
# Lenti-x-293 cells stably expressing GST-CRBN and SALL4 variants were treated with DMSO or 40 μM thalidomide for 16 hours. Cells were then wished with ice-cold 1×PBS twice, lysed in buffer A [50 mM Tris. CL, 150 mM NaCl, 1% triton-x 100, complete protease inhibitor tablet (Roche), phosphatase inhibitor tablet (Roche)]. Whole cell extracts were harvested and subjected to immunoblot analysis.
# [1] = test system: SALL4 binding to cereblon; assay: Co-immunoprecipitation of CRBN and SALL4 variants in lenti-X-293 cells expressing GST-CRBN; assay type: cell-based, human; details: 40 μM thalidomide, 8 hours, 1 μM MLN4924
# Procedure: All cells were treated with 1 μM MLN4924, and either 40 μM thalidomide (+) or DMSO vehicle control (−) as indicated for 8 hours (n=2 biological replicates).
# Lenti-X-293 cells were cotransfected with pDEST27-CRBN, which encodes GST-CRBN, and pLOC empty vector (Thermo Fisher), which contains a blasticidin resistant gene. Two days after transfection, cells were trypsinized and seeded into 96-well plates through limiting dilution. After selectin with blasticidin (20 μg/mL) for 2 weeks, single clones were picked, expanded and screened for overexpression of GST-CRBN via immunoblot analysis with anti-CRBN65 antibody. Next, lenti-X-293 cells stably expressing GST-CRBN Human were infected with lentiviruses expressing SALL4 wild-type and variants to generate lenti-x-293 cells stably expressing GST-CRBN and SALL4. Then, cells were treated with DMSO or 40 μM thalidomide for 8 hours in the presence of 1 μM MLN4924, and lysed in Buffer B [50 mM Tris (pH 7.4), 150 mM NaCl, 0.5% NP-40, 10% glycerol, 1× Complete Ultra protease inhibitor (Roche), and 1× PhosphoSTOP (Roche)]. […] After washing the anti-HA resin with Buffer B for 6 times, anti-HA immunoprecipitates were eluted by boiling in 2×LDS loading buffer at 90° C. for 5 minutes, and then subjected to immunoblot analysis.
# [2] = Toxicokinetics in huCRBN mice; assay type: in vivo; details: oral, GD 15
# Procedure: Thalidomide was administered to female HOM huCRBN mice by oral gavage at dose levels of 0 (1.0% [w/v] carboxymethylcellulose [1500-3000 cP] in RO deionized water), 100, 300, or 1000 mg/kg/day once daily on Gestation Day [GD] 6 through 15. On GD 15, blood samples were collected from the submandibular vein of mice assigned to study at 0.5, 1, 3, 6, and 24 hours postdose for bioanalytical and toxicokinetic evaluation. […] Mice were euthanized and examined, and a gross necropsy was performed. The ovaries and uterus were examined for number and distribution of corpora lutea, implantation sites, placentae (size, color, and shape), live and dead fetuses, and early and late resorptions. Fetuses were euthanized by an intraperitoneal injection of sodium pentobarbital (390 mg/mL). Fetuses were weighed and examined for sex and external abnormalities. Late resorptions were examined for external abnormalities and sex to the extent possible. The body weight of each fetus was recorded. Fetuses were individually identified with the study number, litter number and uterine distribution. Approximately one-half of the fetuses in each litter were examined for visceral abnormalities by using an adaptation of the sectioning technique of Wilson. Each fetus was fixed in Bouin's solution; sections were stored in alcohol. The remaining fetuses (approximately one-half of the fetuses in each litter) were examined for skeletal abnormalities after staining with alizarin red S. Following examination, skeletal preparations were retained in glycerin with thymol added as a preservative.
# SALL4 mRNA = assay: In situ hybridization for SALL4 RNA in rabbit embryo limb buds; assay type: in vivo; details: treated vs untreated
# Procedure: A fully automated SALL4 ISH assay was performed on Leica BOND RX IHC & ISH stainer with the BOND Research Detection System (Leica, Cat. No. DS9455). Formalin fixed paraffin embedded (FFPE) rabbit embryos were sectioned at four micron thickness, baked at 60° C. for 1 hour and then deparaffinized in Dewax solution at 72° C. Antigen retrieval was performed in Epitope Retrieval 2 (ER2, pH 9.0) for 15 min at 95° C. Custom-designed rabbit SALL4 target probe was applied on the slides and incubated at 42° C. for 2 hours. SALL4 signal was then amplified with the RNAscope LS Multiplex Fluorescent Reagent Kit (ACD, Cat. No. 322800) using the BOND RX default ACD ISH protocol. SALL4 signal was detected with Opal TSA fluorophore 570 (PerkinElmer, Cat. No. FP1488001KT) at a 1:1500 dilution for a 30 min incubation. Slides were then coverslipped manually using ProLong Diamond Antifade Mountant with DAPI (Life Technology, Catalog No. P36966). After whole slide scan at 4× magnification was completed, 40× magnification images were acquired using Perkin Elmer Vectra 3.0 multispectral image platform.
# [3] = test system: SALL4 binding to cereblon; assay type: cell-based, human
# Procedure: Binding of full length SALL4 to cereblon in cells was then tested by co-immunoprecipitation (see FIG. 3). HA-tagged WT, G416A, or G600A SALL4 was immunoprecipitated from cells, and the level of co-purifying cereblon was assessed by western blot. Briefly, a Lenti-x 293 cell line with a CRISPR-cas9 knock-out of cereblon and stable expression of HA-tagged SALL4 or SALL4 mutants was transfected with either GST-cereblon or empty vector. […] The amount of co-purifying GST-cereblon was then assessed by western blot.
structure (smiles),measurement,setting,value
O=C1CCC(N2C(=O)c3ccccc3C2=O)C(=O)N1 (stereo not drawn) [thalidomide],Degradation of G416A SALL4,SALL4,blocked the thalidomide dependent degradation of SALL4
same,Degradation of G600A SALL4,SALL4,had no effect on SALL4 degradation
same,Binding of G416A SALL4 to cereblon (co-IP),[1],disrupted cereblon binding in cells
same,Binding of G600A SALL4 to cereblon (co-IP),[1],able to bind cereblon
same,Binding of wild-type SALL4 to cereblon (co-IP),[1],able to bind cereblon
same,Mean plasma exposure (area under the curve),[2]; 100 mg/kg/day,"35,100 ng·hr/mL"
same,Mean plasma exposure (area under the curve),[2]; 300 mg/kg/day,"78,600 ng·hr/mL"
same,Mean plasma exposure (area under the curve),[2]; 1000 mg/kg/day,"143,000 ng·hr/mL"
same,SALL4 mRNA levels (ISH),SALL4 mRNA,not altered upon thalidomide treatment
same,Binding of G416A SALL4 to cereblon,"[3]; HA-tagged G416A SALL4, anti-HA pull-down",disrupted the binding significantly
same,Binding of G600A SALL4 to cereblon,"[3]; HA-tagged G600A SALL4, anti-HA pull-down","strong, compound-dependent binding to cereblon"
same,"Binding of WT SALL4 to cereblon (co-purifying GST-cereblon, western blot)","[3]; HA-tagged WT SALL4, anti-HA pull-down","strong, compound-dependent binding to cereblon"
